Measurements: US20240209371A1, “COMPOSITIONS AND METHODS FOR TREATING CANCER” (Dana-Farber Cancer Institute, Inc., priority 2021, published 2024)

Tests used:
Type in all cases: cell-based
RAS-GTP = RAS-GTP assay in KRAS expressing PC9 cell lines
Method: (§1) Cells were lysed with RIPA buffer (Boston Bioproducts) supplemented with complete Mini EDTA-free Protease inhibitor cocktail (Roche) and PhoSTOP phosphatase inhibitor cocktail (Roche). The total cell lysate (20 ug) was subjected to SDS polyacrylamide gel electrophoresis and transferred to Immobilon-P polyvinylidene difluoride membranes (Bio-Rad Laboratories). Antibodies are listed in supplementary table 10. RAS-GTP was evaluated using the Active Ras Detection Kit (#8821, Cell Signaling Technology). Cells were cultured with media containing 0.1% FBS with or without 1 μM osimertinib for 24 hours, and 80 ug of GST-Raf1-RBD and 500 ug of protein lysates were used according to the manufacturer's instructions.

[1] = tested on: CRISPR-modified PC9 cell lines; assay: Cell viability assay of parental or CRISPR-modified PC9 cells with osimertinib
Method: Parental or CRISPR-modified PC9 cell lines (1×10^3 cells) were plated in 384-well plates. After 24 hours, cells were treated with drugs at the indicated concentrations for 72 hours. Endpoint cell viability assays were performed using Cell Titer Glo (Promega). RAS mutant cell lines (2×10^3 cells) were seeded in 384 ultra-low attachment plates as suspension cells and evaluated using 3D-Cell Titer Glo (Promega). RAS mutant cells were treated with trametinib for 3 days and with antisense oligos or siRNA for 8 days.

ERK1/2 = assay: Western blot after osimertinib treatment in PC9 cells
Method: as §1

Q61 mutant cells = assay: Exon skipping by PS+2′MOE antisense oligos in Q61 mutant cells; details: in vitro
Method: RNA was extracted using the RNeasy Mini kit (Qiagen) and cDNA was synthesized using the QuantiTect Reverse Transcription Kit (Qiagen). Isoforms were amplified using gene-specific-primers (FIG. 24) and amplicons were resolved on a 2% agarose gel. Isoforms were characterized by Sanger sequencing.
RAS mutant cell lines in culture media were treated in suspension with indicated concentrations of morpholino and 3-6 μM endo-porter (Gene Tools). Duration of treatment was 2 days for RNA experiments, 3 days for western blot, and 8 days for growth-inhibition assay based on previously published treatment protocols with KRAS selective inhibitors against RAS mutant cells^4. In all experiments using full PS+2′MOE antisense oligos, medium was enriched with Ca^2+. Ca^2+ enrichment of medium potentiates the in vitro activity of multiple types of oligonucleotides and is more reflective of in vivo conditions than conventional transfection methods^42. Duration of treatment was 2 days for RNA experiments, 6 days for western blot, and 8 days for growth-inhibition assay.

mutant KRAS pre-mRNA = assay: NGS of remaining full-length KRAS transcript in SW948 cells; details: dose dependent, decreased from 44%
Description: The use of mutant selective antisense oligos can be used to induce aberrant splicing only in tumor cells, but not in normal cells lacking the Q61 mutation, minimizing off target toxicity (FIG. 4 panel a). Using this approach, we induced skipping of whole exon 3 in the KRAS GQ60GK lung cancer CALU6 cell line, in a dose dependent manner (FIG. 4 panel b). […] To assess the selectivity of the morpholino for the KRAS mutant over wild type transcript, the identity of the full-length pre-mRNA contributing to the exon 3 spliced mRNA following morpholino treatment needed to be determined. […] We PCR-amplified KRAS cDNA generated from morpholino treated SW948 cells, separated it by gel electrophoresis and analyzed by NGS the remaining full-length transcript, in order to obtain the ratio of mutant versus wild type KRAS pre-mRNA targeted by the morpholino. […] We next evaluated the effect of these oligos on cell growth. As not all RAS mutant cell lines are dependent on RAS signaling for their growth^28, we determined RAS dependency of each of the Q61 mutant cell lines using KRAS, NRAS or HRAS specific siRNAs, and compared our findings to published gene effect scores for dependency by RNAi and CRISPR knock out obtained from Depmap (depmap.org) (FIG. 4 panel e). […] We also evaluated MEK inhibitor sensitivity in a panel of these cell lines using trametinib (FIG. 10 panel b). […]

C=CC(=O)Nc1cc(Nc2nccc(-c3cn(C)c4ccccc34)n2)c(OC)cc1N(C)CCN(C)C [osimertinib]
RAS-GTP levels after osimertinib, KRAS GQ60GK (RAS-GTP; PC9 KRAS GQ60GK): minimally affected | RAS-GTP after osimertinib, KRAS Q61K single mutant or KRAS wild type parental PC9 (RAS-GTP; PC9 Q61K or parental): decrease in RAS-GTP | effect of osimertinib on KRAS G12C, G12D, A146T, or BRAF V600E clones ([1]; 1 μM osimertinib): largely unaffected | osimertinib sensitivity of PC9 with heterozygous KRAS GQ60GK or Q61H ([1]; heterozygous mutations): resistance | osimertinib sensitivity of PC9 clones harboring KRAS Q61K without silent mutation ([1]; single-cell clones): growth inhibition comparable to that of parental PC9 cells | ERK1/2 activation following osimertinib, KRAS GQ60GK c.180_181 delinsAA cells (ERK1/2; PC9 KRAS GQ60GK): persistent ERK1/2 activation | ERK1/2 activation following osimertinib, KRAS Q61K alone cells (ERK1/2; PC9 KRAS Q61K alone): not in cells expressing KRAS Q61K alone

PS+MOE 1-3: 20nt PS+2′MOE antisense oligo; 1-3 sequence 5′-ACTCCTCTTTGCCTGCTGTG-3′ (all 2'-MOE, all phosphorothioate, methylation of C not given here)
mutant selective exon skipping compared with morpholino oligos (Q61 mutant cells): mutant selective skipping at a much lower concentration

mor-4: morpholino targeting KRAS Q61L; M4 / mor-4-4 sequence 5′-GTACTCCTCTAGACCTGCTGTGTCG-3′ (all phosphorodiamidate morpholino (PMO))
fraction of mutant KRAS pre-mRNA within the full-length transcript species (mutant KRAS pre-mRNA): 22%
